# According to patent US11974969B2, “Artificially synthesized sphingosine derivative lipoid monomer and use of same for delivering nucleic acid” (INSTITUTE OF BASIC MEDICAL SCIENCES CHINESE ACADEMY OF …, priority 2018, dated 2024):
# Test system: HEK293T cells
# Test: Flow cytometry (CFlow): delivery of FAM-labeled single-stranded PGY-sRNA-6 into HEK293T cells by different concentrations of single sphingosine derivative (Example 1)
# Type: cell-based, human
# Conditions: for delivery of single-stranded PGY-sRNA-6 into 293T cells (fluorescence shift compared to free uptake group): different concentrations: 3.75, 12.5, 37.5 μg single lipid, 0.1 nmol FAM-labeled sRNA, final 100 nM, 9 hours, flow cytometry; for Lipid delivery group (different concentrations of lipids) 3.75 μg/mL: single sphingosine derivative 3.75 μg/mL; for Lipid delivery group (different concentrations of lipids) 3.75 μg/mL / Lipid delivery group (different concentrations of lipids) 12.5 μg/mL / Lipid delivery group (different concentrations of lipids) 37.5 μg/mL: FAM-labeled PGY-ssRNA-6 100 nM, 293T cells, fluorescence shift by flow cytometry; for Lipid delivery group (different concentrations of lipids) 12.5 μg/mL: single sphingosine derivative 12.5 μg/mL; for Lipid delivery group (different concentrations of lipids) 37.5 μg/mL: single sphingosine derivative 37.5 μg/mL
# Protocol: 2.1 5 μl of small RNA (Ribobio, 20 μM, as shown in Table 2) and 95 μL of DEPC (Sigma) treated water were added into a 1.5 ml EP tube and mixed well. Then a certain amount of single lipid or lipid composition in chloroform solution (as shown in Table 1) was added and fully mixed by sucking and blowing;
# 2.2 The system was fully mixed and was heated in a water bath at 90° C. for 15 minutes;
# 2.3 The system was taken out and cooled down to room temperature.
# 4.3 The human embryonic kidney cell line HEK293T and human monocyte THP-1 cells used in the experiment were cultured to logarithmic growth phase, and then plated into 12-well plates with a cell density of 6×10^5/1 mL medium/well. The 12-well plate (1 mL medium/well) was incubated overnight (12 h) at 37° C., followed by subsequent experiments.
# 4.4 The experiment groups were as follows: • 1) Naïve group: untreated cells. This group served as a blank control group. • 2) Free uptake group: […] of 5′-FAM labeled small RNA solution (storage concentration is 20 μM) was directly added. This group served as a negative control group; • 3) Lipid nucleic acid mixture treatment group: The mixture of the lipid prepared in step 2 and the 5′-FAM-labeled small RNA was added into the cells and mixed well. The final concentration of small RNA is 100 nM.
# 4.5 After co-incubation with cells for 6 h/9 h, the cells were washed three times with PBS. The cells were re-suspended with PBS (self-prepared). The flow cytometer Accuri® C6 instrument (purchased from BD, US) was used to detect the fluorescence intensity of the cells in the sample wells. Implementation method: the software CFlow Plus used in the flow cytometer Accuri® C6 instrument detection was opened, the instrument was washed with cleaning solution for 3 minutes, and then washed with double-distilled water for 5 minutes. The injection of blank group samples was started while setting the number of cells unlimited. The injection of Naïve group samples was stopped when the number of cells detected was 10000 events. The live cell group in the fluorescence spectrum (abscissa: FSC-A, ordinate: SSC-A) was circled as gate P1. With the number of cells set as limited, the detection was stopped when the number of cells in gate P1 reached 10000 events. The fluorescence shift value was obtained in the fluorescence spectrum (abscissa: fluorescence channel FLA-1, ordinate: SSC-A).
# 1) Conditions of the boiling method: to 100 μL FAM-labeled single-stranded PGY-sRNA-6 solution was added corresponding amount of lipid solution, and heated at 90° C. for 15 min;
# 2) Experimental conditions: the final concentration of small RNA was 100 nM. 9 hours after being added to the cells, the amount of single-stranded PGY-sRNA-6 that entered into the cells was compared by detecting the fluorescence shift using flow cytometry technology. For the detailed protocols, see “Flow cytometry technology (CFlow) determined the uptake amount of nucleic acid that is delivered into cells by lipid”. All experiments were performed in triplicates.
SMILES,delivery of single-stranded PGY-sRNA-6 into 293T cells (fluorescence shift compared to free uptake group),Lipid delivery group (different concentrations of lipids) 3.75 μg/mL [%],Lipid delivery group (different concentrations of lipids) 12.5 μg/mL [%],Lipid delivery group (different concentrations of lipids) 37.5 μg/mL [%]
"CCCCCCCCCCCCC/C=C/[C@@H](O)[C@H](CO)NC(=O)CCCCCCCCCCCCCCCCCC [So-65, N-[(1S,2R,3E)-2-hydroxy-1-(hydroxymethyl)-3-heptadecen-1-yl]-nonadecanamide]",deliver,7.60,7.50,6.80
"CCC/C=C\CCCCCCCCCC[C@@H](O)[C@H](C)N [So-7, 14Z-1-Deoxysphingosine (d18:1)]",deliver,1.20,0.20,4.30
"CCCCCCCCCCCCCCCC(=O)C(N)CO.Cl (stereo not shown) [So-8, 3-keto Dihydrosphingosine]",deliver,3.60,4.50,1.90
"CCCCCCCCCCCCCCC[C@@H](O)[C@H](CO)NC(=O)CCCCCCC [So-12, N-octanoyl-D-erythro-Dihydrosphingosine]",deliver,5.60,2.30,1.60
"CCCCCCCCCCCCC/C=C/[C@@H](O)[C@H](CO)NC(=O)CCCCCCCCCCC [So-62, N-[(1S,2R,3E)-2-hydroxy-1-(hydroxymethyl)-3-heptadecen-1-yl]-dodecanamide]",deliver,6.60,6.50,7.10
"[2H]C([2H])([2H])C([2H])([2H])C([2H])([2H])C([2H])([2H])CCCCCCCCC/C=C/[C@@H](O)[C@@H](N)CO [So-74, (2S,3R,E)-aminooctadec-4-ene-15,15,16,16,17,17,18,18,18-d9-1,3-diol]",deliver,4.00,3.10,6.60
"CCCCCCCCCCCCC/C=C/[C@@H](O)[C@H](CO)NC(=O)CCCCCCCCCCCCCC [So-64, N-[(1S,2R,3E)-2-hydroxy-1-(hydroxymethyl)-3-heptadecen-1-yl]-pentadecanamide]",deliver,7.40,6.20,8.70
"CCCCCCCCCC/C=C/[C@@H](O)[C@@H](N)CO [So-73, 2S-amino-4E-pentadecene-1,3R-diol]",deliver,3.20,4.60,9.50
"CCCCCCCCCCCCC/C=C/[C@@H](O)[C@H](CO)NC(=O)CCCCCNC(=O)CCCC[C@@H]1SC[C@@H]2NC(=O)N[C@@H]21 [So-3, N-hexanoyl-biotin-D-erythro-Sphingosine]",deliver,1.40,2.10,3.40
"CCCCCCCCCCCCC/C=C/[C@H](O)[C@H](N)CO [So-70, (2R,3S,4E)-2-amino-4-octadecene-1,3-diol]",deliver,4.70,10.10,11.40
"CCCCCCCCCCCCCCC[C@@H](O)[C@H](CO)N(C)C [So-11, N,N-dimethyl-D-erythro-Dihydrosphingosine]",deliver,3.60,7.40,12.70
"CCCCCCCCCCCCCCCCCC(=O)N[C@@H](CO)[C@H](O)[C@H](O)CCCCCCCCCCCCCC [So-69, N-[(1S,2S,3R)-2,3-dihydroxy-1-(hydroxymethyl)heptadecyl]-octadecanamide]",deliver,4.60,3.80,3.30
"CCCCCCCCCCCCC/C=C/[C@@H](O)[C@H](CO)NC(=O)CCCCCCCCCCCCCCCCCCCCCCCCCCCCCO [So-14, ω-hydroxy-C30 Sphingosine (d18:1/30:0)]",deliver,4.40,3.30,4.30
"CCCCCCCCCCCCCCCC(=O)N[C@@H](CO)[C@H](O)CCCCCCCCCCCCCCC [So-10, N-hexadecanoyl-D-erythro-Dihydrosphingosine]",deliver,2.10,3.40,2.50
"CCCCCCCCCCCCC/C=C/[C@@H](O)[C@@H](N)CO [So-26, D-erythro-Sphingosine C-18]",deliver,0.20,3.80,0.50
"CCCCCCCCCCCCC/C=C/[C@@H](O)[C@H](CO[C@@H]1O[C@H](CO)[C@H](O)[C@H](O)[C@H]1O)NC(=O)CCCCCCCCCCCCCC [So-61, N-[(1S,2R,3E)-1-[(β-D-galactopyranosyloxy)methy1]-2-hydroxy-3-heptadecen-1-yl]-pentadecanamide]",deliver,7.40,8.10,7.00
"CCCCCCCCCCCCCC[C@@H](O)[C@@H](O)[C@@H](N)CO [So-63, 2S-amino-1,3S,4R-octadecanetriol]",deliver,5.60,7.70,6.50
"CCCCCCCCCCCCC/C=C/[C@@H](O)[C@H](CO)N(C)C [So-4, N,N-Dimethylsphingosine (d18:1)]",deliver,1.70,2.20,0.00
"CCCCCCCCCCCCCC[C@@H](O)[C@@H](N)COP(=O)(O)O [So-15, dihydro-D-erythro-Sphingosine-C17-1-phosphate]",deliver,4.70,1.90,2.40
